Experimental data from patent publication US20110045101A1, “FUNGICIDAL SUBSTITUTED AZOLES” (E.I. Du Pont De Nemours and Company, priority 2009, published 2011).
Marks after values point to notes of the source that are not given here.

What was measured:
Assay type in all cases: in vivo
Conditions in all cases: 100 = 100% disease control
Botrytis cinerea = experiment: Test C: tomato Botrytis on tomato seedlings, sprayed the day before inoculation, visual disease rating
Method in brief: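 Spray to run-off on tomato seedlings; test conc. 200 ppm (≈500 g/ha), some entries 40 ppm. Formulation: acetone 3% of final vol., then acetone/water 50:50 + 250 ppm polyhydric alcohol ester surfactant.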

Alternaria solani = experiment: Test D: tomato early blight, sprayed the day before inoculation, visual disease rating
Method in brief: (§1)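 Spray suspension: acetone 3% of final volume, then 50/50 acetone/water plus 250 ppm Trem® 014. Applied to run-off on seedlings at 200 ppm (≈500 g/ha); starred entries tested at 40 ppm.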

Septoria nodorum = experiment: Test F: wheat glume blotch on wheat seedlings, sprayed the day before inoculation, visual disease rating
Method in brief: as §1

Septoria tritici = experiment: Test G: wheat leaf blotch on wheat seedlings, sprayed the day before inoculation, visual disease rating
Method in brief: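 Compounds dissolved in acetone (3% of final volume), then suspended in 50/50 acetone/water with 250 ppm Trem® 014 and sprayed to run-off on seedlings at 200 ppm (≈500 g/ha) or 40 ppm where marked. Inoculation with spores followed next day; visual rating after 48 h saturated at 24° C plus 19 days at 20° C.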

[1] = tested on: Puccinia recondita f. sp. tritici; experiment: Test H: wheat leaf rust, test suspension sprayed after inoculation of wheat seedlings, visual disease rating
Source text: General protocol for preparing test suspensions for Tests A-J: The test compounds were first dissolved in acetone in an amount equal to 3% of the final volume and then suspended at the desired concentration (in ppm) in acetone and purified water (50/50 mix) containing 250 ppm of the surfactant Trem® 014 (polyhydric alcohol esters). The resulting test suspensions were then used in tests A-J. Spraying a 200 ppm test suspension to the point of run-off on the test plants was the equivalent of a rate of 500 g/ha. […] Wheat seedlings were inoculated with a spore suspension of Puccinia recondita f. sp. tritici (the causal agent of wheat leaf rust) and incubated in a saturated atmosphere at 20° C. for 24 h, and then moved to a growth chamber at 20° C. for 2 days. […] A dash (-) indicates no test results. All results are for 200 ppm except where followed by “*”, which indicates 40 ppm.

[2] = tested on: Puccinia recondita f. sp. tritici; experiment: Test I: wheat leaf rust on wheat seedlings, sprayed the day before inoculation, visual disease rating
Method in brief: as §1

[3] = tested on: Erysiphe graminis f. sp. tritici; experiment: Test J: wheat powdery mildew on wheat seedlings, sprayed the day before inoculation, visual disease rating
Method in brief: as §1

[4] = 200 ppm, 0 = no control relative to controls
[5] = 40 ppm (marked *), 0 = no control

SMILES | Test C disease control rating (Botrytis cinerea; [4]) [%] | Test D disease control rating (Alternaria solani; [4]) [%] | Test F disease control rating (Septoria nodorum; [4]) [%] | Test G disease control rating (Septoria tritici; [4]) [%] | Test H disease control rating [1, 4] [%] | Test I disease control rating [2, 4] [%] | Test J disease control rating [3, 4] [%] | other results
Cc1nc(Br)n(-c2ccc(Cl)nc2)c1-c1c(F)cccc1F [compound 682] | 100 | 100 | 99 | 100 | 97 | 100 | 100 | 
COc1cc(F)c(-c2c(Cl)nc(SC)n2-c2ccc(C)cc2)c(F)c1 [compound 695] | 100 | 99 | 97 | 99 | 97 | 99 | 96 | 
Cc1nc(Cl)n(-c2ccc(Cl)nc2)c1-c1c(F)cccc1F [compound 693] | 100 | 100 | 99 | 99 | 100 | 100 | 100 | 
COc1cc(F)c(-n2cnc(C)c2-c2ccc(Cl)cc2)c(F)c1 [compound 688] |  |  |  |  |  |  |  | Test C disease control rating (Botrytis cinerea; 40 ppm (marked *)): 100* %; Test D disease control rating (Alternaria solani; 40 ppm (marked *)): 33* %; Test F disease control rating (Septoria nodorum; 40 ppm (marked *)): 0* %; Test G disease control rating (Septoria tritici; 40 ppm (marked *)): 97* %; Test H disease control rating ([1]; 40 ppm (marked *)): 8* %; Test I disease control rating ([2]; 40 ppm (marked *)): 0* %; Test J disease control rating ([3]; 40 ppm (marked *)): 78* %
COc1cc(F)c(-c2c(Cl)nc(C)n2-c2ccc(C)c(C#N)c2)c(F)c1 [compound 613] |  |  |  |  |  |  |  | Test C disease control rating (Botrytis cinerea; 40 ppm (marked *)): 99* %; Test D disease control rating (Alternaria solani; 40 ppm (marked *)): 100* %; Test F disease control rating (Septoria nodorum; 40 ppm (marked *)): 64* %; Test G disease control rating (Septoria tritici; 40 ppm (marked *)): 99* %; Test H disease control rating ([1]; 40 ppm (marked *)): 15* %; Test I disease control rating ([2]; 40 ppm (marked *)): 97* %; Test J disease control rating ([3]; 40 ppm (marked *)): 21* %
COc1cc(OC)cc(-n2c(Br)nc(C)c2-c2c(F)cc(OC)cc2F)c1 [compound 657] |  |  |  |  |  |  |  | Test C disease control rating (Botrytis cinerea; 40 ppm (marked *)): 99* %; Test D disease control rating (Alternaria solani; 40 ppm (marked *)): 99* %; Test F disease control rating (Septoria nodorum; 40 ppm (marked *)): 99* %; Test G disease control rating (Septoria tritici; 40 ppm (marked *)): 99* %; Test H disease control rating ([1]; 40 ppm (marked *)): 100* %; Test I disease control rating ([2]; 40 ppm (marked *)): 100* %; Test J disease control rating ([3]; 40 ppm (marked *)): 96* %
Cc1nc(Cl)c(-c2c(F)cccc2F)n1-c1ccc(SCCl)cc1 [compound 529] | 0 | 0 | 0 | 82 | 9 | 48 | 0 | 
COc1cc(F)c(-c2c(Cl)nc(Br)n2-c2ccc(F)c(F)c2)c(F)c1 [compound 484] | 100 | 100 | 89 | 95 | 28 | 100 | 100 | 
COc1cc(F)c(-c2c(Cl)nc(Br)n2-c2ccc(OC(F)(F)F)cc2)c(F)c1 [compound 548] | 98 | 100 | 94 | 96 | 0 | 99 | 100 | 
Cc1nc(Br)c(Cc2c(F)cc(F)cc2F)n1-c1cc(Cl)cc(Cl)c1 [compound 541] | 0 | 0 | 0 | 0 | 0 | 0 | 0 | 
COc1ccc(-c2c(Cl)nc(Br)n2-c2ccc(F)cc2)c(Cl)c1 [compound 725] | 100 | 99 | 73 | 99 | 15 | 91 | 98 | 
Cc1ncc(Cc2c(F)cc(F)cc2F)n1-c1cc(Cl)cc(Cl)c1 [compound 539] | 36 | 0 | 0 | 7 | 0 | 93 | 95 | 
COc1cc(F)c(-n2c(Br)nc(C)c2-c2cccc(F)c2)c(F)c1 [compound 687] |  |  |  |  |  |  |  | Test C disease control rating (Botrytis cinerea; 40 ppm (marked *)): 100* %; Test D disease control rating (Alternaria solani; 40 ppm (marked *)): 100* %; Test F disease control rating (Septoria nodorum; 40 ppm (marked *)): 99* %; Test G disease control rating (Septoria tritici; 40 ppm (marked *)): 98* %; Test H disease control rating ([1]; 40 ppm (marked *)): 100* %; Test I disease control rating ([2]; 40 ppm (marked *)): 100* %; Test J disease control rating ([3]; 40 ppm (marked *)): 100* %
Cc1nc(Br)c(-c2c(F)cccc2F)n1-c1ccc2c(c1)OCCO2 [compound 602] |  |  |  |  |  |  |  | Test C disease control rating (Botrytis cinerea; 40 ppm (marked *)): 99* %; Test D disease control rating (Alternaria solani; 40 ppm (marked *)): 91* %; Test F disease control rating (Septoria nodorum; 40 ppm (marked *)): 0* %; Test G disease control rating (Septoria tritici; 40 ppm (marked *)): 99* %; Test H disease control rating ([1]; 40 ppm (marked *)): 0* %; Test I disease control rating ([2]; 40 ppm (marked *)): 98* %; Test J disease control rating ([3]; 40 ppm (marked *)): 81* %
Fc1ccc(-n2c(Br)nc(Br)c2-c2ccc(Cl)cc2)c(Cl)c1 [compound 306] | 99 | 96 | 0 | 94 | 6 | 91 | 99 | 
COc1ccc(F)c(-c2c(Cl)nc(C)n2-c2ccc(C)cc2)c1F [compound 333] |  |  |  |  |  |  |  | Test C disease control rating (Botrytis cinerea; [5]): 100* %; Test D disease control rating (Alternaria solani; [5]): 100* %; Test F disease control rating (Septoria nodorum; [5]): 99* %; Test G disease control rating (Septoria tritici; [5]): 91* %; Test H disease control rating [1, 5]: 0* %; Test I disease control rating [2, 5]: 100* %; Test J disease control rating [3, 5]: 100* %
CCOc1ccc(F)c(-c2c(Cl)ncn2-c2cccc(F)c2)c1F [compound 661] | 99 | 99 | 87 | 99 | 0 | 100 | 100 | 
CN(C)c1ccc(-n2cnc(N(C)C)c2-c2c(F)cccc2F)cc1 [compound 634] |  |  |  |  |  |  |  | Test C disease control rating (Botrytis cinerea; 40 ppm (marked *)): 0* %; Test D disease control rating (Alternaria solani; 40 ppm (marked *)): 0* %; Test F disease control rating (Septoria nodorum; 40 ppm (marked *)): 0* %; Test G disease control rating (Septoria tritici; 40 ppm (marked *)): 0* %; Test H disease control rating ([1]; 40 ppm (marked *)): 0* %; Test I disease control rating ([2]; 40 ppm (marked *)): 0* %; Test J disease control rating ([3]; 40 ppm (marked *)): 0* %
COc1ccc(F)c(-c2c(Br)nc(Cl)n2-c2ccc(Cl)cc2)c1F [compound 510] | 99 | 100 | 100 | 99 | 9 | 98 | 100 | 
COc1cc(F)c(-c2c(Cl)nc(Br)n2-c2cccc(OC(F)(F)F)c2)c(F)c1 [compound 547] | 99 | 88 | 60 | 97 | 0 | 99 | 100 | 
Cc1nc(C)n(-c2ccc(Cl)cc2)c1-c1c(F)ccc(F)c1F [compound 416] |  |  |  |  |  |  |  | Test C disease control rating (Botrytis cinerea; [5]): 100* %; Test D disease control rating (Alternaria solani; [5]): 100* %; Test F disease control rating (Septoria nodorum; [5]): 0* %; Test G disease control rating (Septoria tritici; [5]): 97* %; Test H disease control rating [1, 5]: 0* %; Test I disease control rating [2, 5]: 26* %; Test J disease control rating [3, 5]: 99* %
COc1cc(F)c(-c2c(Cl)ncn2Cc2ccc(C)cc2)c(F)c1 [compound 274] |  |  |  |  |  |  |  | Test C disease control rating (Botrytis cinerea; 200 ppm, 0 = no control): 100%; Test D disease control rating (Alternaria solani; 200 ppm, 0 = no control): 100%; Test F disease control rating (Septoria nodorum; 200 ppm, 0 = no control): 51%; Test G disease control rating (Septoria tritici; 200 ppm, 0 = no control): 94%; Test H disease control rating ([1]; 200 ppm, 0 = no control): 48%; Test I disease control rating ([2]; 200 ppm, 0 = no control): 99%; Test J disease control rating ([3]; 200 ppm, 0 = no control): 77%
COc1ccc(F)c(-c2c(Cl)nc(Cl)n2-c2ccc(Cl)nc2)c1F [compound 709] | 100 | 100 | 100 | 99 | 100 | 100 | 100 | 
COc1cc(F)c(-c2c(Br)ncn2-c2ccc(F)cc2)c(F)c1 [compound 506] | 100 | 100 | 92 | 99 | 78 | 100 | 99 | 
